Results from ChEMBL document CHEMBL1201862, “PubChem BioAssay data set” (2004).
Activity calls are given as the source filed them.

Columns and labels:
Cytochrome P450 2C9 = Cytochrome P450 2C9 (Homo sapiens, UniProt P11712)
Cytochrome P450 2C19 = Cytochrome P450 2C19 (Homo sapiens, UniProt P33261); assay: Cytochrome panel assay with activity outcomes. Panel member name: p450-cyp2c19 Compounds with AC50 equal or less than 10 uM are considered active; type: functional; details: read-out: AC50
Cytochrome P450 2D6 = Cytochrome P450 2D6 (Homo sapiens, UniProt P10635);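 note: CYP2D6 member of a cytochrome P450 panel assay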
Cytochrome P450 3A4 = Cytochrome P450 3A4 (Homo sapiens, UniProt P08684);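 note: CYP3A4 tested as one member of a cytochrome P450 panel screen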
HEK293 [1] = assay: cells; type: functional, cell-based; details: Homo sapiens
HEK293 [2] = assay: cells; type: functional, cell-based; details: Homo sapiens; remark: listed apart in the source
[3] = DRD fibroblast viability loss – cell-based, non-viral oncogenic, luminescence, dose response (AID 1934); type: functional; details: Homo sapiens
[4] = biological target: Nucleotide-binding oligomerization domain-containing protein 2 (Homo sapiens, UniProt Q9HC29); assay: inhibition of NOD2-driven NF-kB reporter – cell-based, luminescence, uHTS, HEK293 (AID 1566); type: functional
Protein RecA = biological target: T1, Protein RecA (Mycobacterium tuberculosis, UniProt P9WHJ3); assay: Fluorescence Cell-Free Homogeneous Dose Retest to Identify Inhibitors of RecA-Intein Splicing Activity. [Related pubchem assays (depositor defined):AID2097, AID2223, AID489010, AID492950]; type: functional
T1 sequence (P9WHJ3 whole entry): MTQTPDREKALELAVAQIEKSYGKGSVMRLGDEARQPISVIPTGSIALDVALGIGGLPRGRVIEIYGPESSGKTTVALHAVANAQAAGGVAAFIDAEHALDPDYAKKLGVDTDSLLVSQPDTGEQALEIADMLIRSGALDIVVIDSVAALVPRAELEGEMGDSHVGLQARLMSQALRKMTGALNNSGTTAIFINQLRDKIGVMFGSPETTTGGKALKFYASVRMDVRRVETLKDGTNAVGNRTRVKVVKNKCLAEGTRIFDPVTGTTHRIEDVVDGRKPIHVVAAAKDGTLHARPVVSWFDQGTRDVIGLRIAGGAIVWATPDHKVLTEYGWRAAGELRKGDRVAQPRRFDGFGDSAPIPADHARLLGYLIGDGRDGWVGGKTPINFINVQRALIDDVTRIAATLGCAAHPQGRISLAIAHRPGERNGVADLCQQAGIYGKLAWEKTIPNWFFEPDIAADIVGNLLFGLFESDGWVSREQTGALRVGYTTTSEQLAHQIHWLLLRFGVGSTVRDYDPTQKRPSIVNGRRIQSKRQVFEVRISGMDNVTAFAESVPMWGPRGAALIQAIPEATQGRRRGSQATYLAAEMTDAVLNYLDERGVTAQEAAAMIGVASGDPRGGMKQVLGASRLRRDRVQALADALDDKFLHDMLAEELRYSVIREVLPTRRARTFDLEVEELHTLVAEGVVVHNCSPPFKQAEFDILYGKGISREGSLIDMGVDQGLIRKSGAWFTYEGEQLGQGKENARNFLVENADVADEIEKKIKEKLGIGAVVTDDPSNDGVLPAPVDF

HEK293 [5] = assay: cells; type: functional, cell-based; details: Homo sapiens; remark: listed apart in the source
BJ [6] = assay: BJ-TERT fibroblast viability loss – cell-based, RAS-independent, luminescence, dose response (AID 1933); type: functional; details: Homo sapiens
BJ [7] = assay: BJ-TERT-LT-ST fibroblast viability loss – cell-based, RAS-independent, luminescence, dose response (AID 1935); type: functional; details: Homo sapiens;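 note: BJ fibroblasts immortalized with TERT plus LT and ST oncogenes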
[8] = biological target: T2, Replicative DNA helicase DnaB (Mycobacterium tuberculosis, UniProt P9WMR3); assay: DnaB intein splicing inhibitors, dose response, biochemical, cell-free fluorescence (AID 449749); type: functional
T2 sequence (P9WMR3 whole entry): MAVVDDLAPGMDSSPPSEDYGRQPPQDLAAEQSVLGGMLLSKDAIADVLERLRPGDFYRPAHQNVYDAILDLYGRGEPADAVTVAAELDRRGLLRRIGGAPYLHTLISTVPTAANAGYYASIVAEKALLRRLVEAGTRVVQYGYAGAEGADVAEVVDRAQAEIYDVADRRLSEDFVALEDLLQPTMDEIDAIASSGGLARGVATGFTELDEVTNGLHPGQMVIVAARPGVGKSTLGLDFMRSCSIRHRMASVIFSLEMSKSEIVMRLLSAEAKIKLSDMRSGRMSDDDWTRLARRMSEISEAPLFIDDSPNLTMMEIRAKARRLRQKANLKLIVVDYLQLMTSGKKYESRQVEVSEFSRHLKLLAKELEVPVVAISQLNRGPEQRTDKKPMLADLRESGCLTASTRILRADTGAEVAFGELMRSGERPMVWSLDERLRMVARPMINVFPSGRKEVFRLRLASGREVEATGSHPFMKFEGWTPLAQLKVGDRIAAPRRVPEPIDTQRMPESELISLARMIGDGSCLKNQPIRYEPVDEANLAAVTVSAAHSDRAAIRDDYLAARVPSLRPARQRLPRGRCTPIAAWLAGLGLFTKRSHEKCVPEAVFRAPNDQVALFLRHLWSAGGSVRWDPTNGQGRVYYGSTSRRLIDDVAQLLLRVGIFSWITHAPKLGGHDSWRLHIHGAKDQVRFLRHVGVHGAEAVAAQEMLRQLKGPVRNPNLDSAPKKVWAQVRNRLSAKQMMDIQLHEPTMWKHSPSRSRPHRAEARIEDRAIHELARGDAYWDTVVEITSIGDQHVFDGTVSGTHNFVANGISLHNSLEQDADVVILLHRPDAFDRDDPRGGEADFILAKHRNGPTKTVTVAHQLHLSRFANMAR

HEK293 [9] = assay: NOD2 signaling inhibitors in MDP-stimulated cells, cell-based, uHTS, luminescence (AID 2001); type: functional; details: Homo sapiens
BJ [10] = assay: cells; type: functional, cell-based; details: Homo sapiens
HEK293 [11] = assay: inhibition of NOD1-driven NF-kB reporter – cell-based, luminescence, uHTS, primary screen (AID 1578); type: functional; details: Homo sapiens
[12] = fluconazole-exposed Candida albicans growth modulators – fluorescence, retest, confirmation (AID 2467); type: functional, cell-based
[13] = NIH3T3 cell viability loss – ATP luminescence, mouse fibroblasts, counter-screen, dose response (AID 2010); type: functional, cell-based;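 note: cells exposed to compound for about 90 hours before reading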
Protein Wnt-3a = Protein Wnt-3a (Mus musculus, UniProt P27467); assay: antagonism of Wnt3a pathway luciferase reporter – Wnt-LIGHT cells, luminescence, selectivity assay for Gli-SUFU antagonist project, dose response (AID 651570); type: functional; details: read-out: IC50_Mean;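 note: Wnt-LIGHT reporter cells stimulated with conditioned medium from Wnt3a-producing cells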
[14] = decrease of insulin promoter-GFP reporter – imaging, high-content screening, mouse beta cells (AID 1628); type: functional; details: MIN6
[15] = MIN6 cell viability loss – mouse insulinoma, cytotoxicity control, dose response (AID 2122); type: functional;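 note: confirmatory high-throughput counterscreen run to flag cytotoxic compounds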
[16] = NIH-3T3 fibroblast cytotoxicity, dose response, cytotoxicity control, cell-based, fluorescence, Alamar Blue, secondary assay (AID 2327); type: functional;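 note: NIH-3T3 mouse fibroblasts cultured with fluconazole at 8 µg/mL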
[17] = Trypanosoma cruzi growth suppression in host cells – NIH3T3 host cells, beta-gal luminescence, confirmation (AID 2044); type: functional, cell-based;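 note: intracellular parasites grown in NIH/3T3 mouse fibroblasts as host cells; luminescent beta-galactosidase reporter signal from transgenic T. cruzi replicating inside host cells; inhibitors lower the luminescence signal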
[18] = biological target: Kappa-type opioid receptor (Homo sapiens, UniProt P41145); assay: SAR analysis of small molecule agonists of the kappa opioid receptor via a luminescent beta-arrestin assay - Set 3. [Related pubchem assays (depositor defined):AID1777, AID1785, AID1786, AID1966, AID2133, AID2136, AID2284, AID2500]; type: functional
[19] = alpha-synuclein stem-loop luciferase translation blockers – H4 neuroglioma cells, luminescence, confirmation (AID 1988); type: functional, cell-based
[20] = Luminescence Cell-Based Dose Retest to Confirm Inhibitors of Cancer Stem Cells. [Related pubchem assays (depositor defined):AID2717, AID2721]; type: functional; details: Homo sapiens
[21] = Luminescence Cell-Based Dose Response HTS to Identify Inhibitors of 5'UTR Stem-Loop Driven Prion Protein mRNA Translation in H4 Neuroglioblastoma Cells. [Related pubchem assays: 1827 (Project Summary), 1813 (Primary HTS)]; type: functional
[22] = biological target: Disintegrin and metalloproteinase domain-containing protein 17 (Homo sapiens, UniProt P78536); assay: exosite inhibitors of ADAM17, dose response, biochemical (AID 743260)
cells [23] = type: functional, cell-based
[24] = luciferase reporter signal suppression in cells – H4 neuroglioma cells, luminescence, dose response (AID 1990); type: functional, cell-based
[25] = inhibition of ADAM10 peptide cleavage – biochemical, FRET peptide substrate, recombinant human ADAM10, selectivity assay for ADAM17 exosite inhibitor project, dose response (AID 743259);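 note: ADAM10 enzyme cleaving a FRET peptide substrate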
cells [26] = type: functional, cell-based; remark: listed apart in the source
Streptokinase A = biological target: T3, Streptokinase A (Streptococcus pyogenes serotype M1, UniProt P10520); assay: viability-normalized secreted streptokinase activity reduction – plasminogen activation absorbance, OD405, dose response (AID 1914); type: functional, Streptococcus pyogenes M1 GAS;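 note: secreted streptokinase activity via plasminogen activation per viability signal from cell pellet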
T3 sequence (P10520 whole entry): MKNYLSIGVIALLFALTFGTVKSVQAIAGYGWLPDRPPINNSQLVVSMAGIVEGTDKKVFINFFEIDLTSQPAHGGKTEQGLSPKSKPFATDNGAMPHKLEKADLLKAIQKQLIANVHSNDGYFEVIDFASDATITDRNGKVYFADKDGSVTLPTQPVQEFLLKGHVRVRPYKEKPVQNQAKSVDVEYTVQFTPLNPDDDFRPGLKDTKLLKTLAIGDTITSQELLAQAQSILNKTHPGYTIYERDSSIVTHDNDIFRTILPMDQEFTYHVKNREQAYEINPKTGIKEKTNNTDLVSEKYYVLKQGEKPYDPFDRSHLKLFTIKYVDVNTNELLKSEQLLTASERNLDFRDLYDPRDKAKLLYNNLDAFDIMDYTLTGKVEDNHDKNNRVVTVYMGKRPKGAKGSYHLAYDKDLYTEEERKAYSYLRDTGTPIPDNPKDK

[27] = tested on: Streptococcus sp. 'group A'; assay: Streptococcus pyogenes SK(-)GAS viability under kanamycin – luminescence, BacTiterGlo, confirmation, counter-screen for streptokinase expression inhibitor project, dose response (AID 1900); type: functional, organism-based
Streptococcus = assay: GAS UMAA2166 growth inhibition – luminescence, BacTiterGlo, counter-screen for streptokinase expression inhibitor project, dose response (AID 1915); type: functional, organism-based;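 note: potency for reduction of bacterial viability or growth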

Sequence of Cytochrome P450 2C19 (P33261 whole entry): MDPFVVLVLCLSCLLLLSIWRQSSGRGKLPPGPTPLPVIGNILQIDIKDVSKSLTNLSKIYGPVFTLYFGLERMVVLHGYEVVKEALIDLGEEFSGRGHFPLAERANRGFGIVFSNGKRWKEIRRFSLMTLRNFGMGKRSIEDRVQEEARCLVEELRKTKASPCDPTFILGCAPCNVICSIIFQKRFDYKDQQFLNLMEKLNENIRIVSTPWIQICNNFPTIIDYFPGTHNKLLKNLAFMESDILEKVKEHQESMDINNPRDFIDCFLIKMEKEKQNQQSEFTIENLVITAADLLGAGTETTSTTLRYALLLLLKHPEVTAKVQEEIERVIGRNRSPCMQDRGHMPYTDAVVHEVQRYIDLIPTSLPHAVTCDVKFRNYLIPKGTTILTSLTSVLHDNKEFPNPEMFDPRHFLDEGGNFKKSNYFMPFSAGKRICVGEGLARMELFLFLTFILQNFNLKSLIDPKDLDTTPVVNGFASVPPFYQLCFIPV
Sequence of Protein Wnt-3a (P27467 whole entry): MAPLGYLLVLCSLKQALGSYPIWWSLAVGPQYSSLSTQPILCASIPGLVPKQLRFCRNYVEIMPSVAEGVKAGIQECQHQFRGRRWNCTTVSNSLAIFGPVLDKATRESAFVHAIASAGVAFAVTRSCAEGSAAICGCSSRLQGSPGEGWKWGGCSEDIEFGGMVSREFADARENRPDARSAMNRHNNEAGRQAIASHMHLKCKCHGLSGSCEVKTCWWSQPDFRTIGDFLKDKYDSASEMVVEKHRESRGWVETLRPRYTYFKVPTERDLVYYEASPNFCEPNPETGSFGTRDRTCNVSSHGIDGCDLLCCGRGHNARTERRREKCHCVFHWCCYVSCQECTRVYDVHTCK
Sequence of Cytochrome P450 2D6 (P10635 whole entry): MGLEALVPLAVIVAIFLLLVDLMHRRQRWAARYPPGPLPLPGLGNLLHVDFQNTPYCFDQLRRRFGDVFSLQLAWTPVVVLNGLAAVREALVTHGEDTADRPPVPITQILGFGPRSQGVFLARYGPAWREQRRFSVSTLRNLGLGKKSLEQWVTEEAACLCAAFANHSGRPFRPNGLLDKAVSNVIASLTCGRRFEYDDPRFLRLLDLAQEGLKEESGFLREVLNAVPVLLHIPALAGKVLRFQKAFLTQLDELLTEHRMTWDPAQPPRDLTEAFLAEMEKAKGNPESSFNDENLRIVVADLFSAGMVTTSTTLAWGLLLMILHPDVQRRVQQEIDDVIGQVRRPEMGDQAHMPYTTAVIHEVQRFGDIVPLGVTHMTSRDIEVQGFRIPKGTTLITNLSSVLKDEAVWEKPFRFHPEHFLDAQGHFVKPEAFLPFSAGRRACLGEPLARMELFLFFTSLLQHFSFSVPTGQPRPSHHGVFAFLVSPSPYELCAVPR
Sequence of Nucleotide-binding oligomerization domain-containing protein 2 (Q9HC29 whole entry, the tested form may be a part): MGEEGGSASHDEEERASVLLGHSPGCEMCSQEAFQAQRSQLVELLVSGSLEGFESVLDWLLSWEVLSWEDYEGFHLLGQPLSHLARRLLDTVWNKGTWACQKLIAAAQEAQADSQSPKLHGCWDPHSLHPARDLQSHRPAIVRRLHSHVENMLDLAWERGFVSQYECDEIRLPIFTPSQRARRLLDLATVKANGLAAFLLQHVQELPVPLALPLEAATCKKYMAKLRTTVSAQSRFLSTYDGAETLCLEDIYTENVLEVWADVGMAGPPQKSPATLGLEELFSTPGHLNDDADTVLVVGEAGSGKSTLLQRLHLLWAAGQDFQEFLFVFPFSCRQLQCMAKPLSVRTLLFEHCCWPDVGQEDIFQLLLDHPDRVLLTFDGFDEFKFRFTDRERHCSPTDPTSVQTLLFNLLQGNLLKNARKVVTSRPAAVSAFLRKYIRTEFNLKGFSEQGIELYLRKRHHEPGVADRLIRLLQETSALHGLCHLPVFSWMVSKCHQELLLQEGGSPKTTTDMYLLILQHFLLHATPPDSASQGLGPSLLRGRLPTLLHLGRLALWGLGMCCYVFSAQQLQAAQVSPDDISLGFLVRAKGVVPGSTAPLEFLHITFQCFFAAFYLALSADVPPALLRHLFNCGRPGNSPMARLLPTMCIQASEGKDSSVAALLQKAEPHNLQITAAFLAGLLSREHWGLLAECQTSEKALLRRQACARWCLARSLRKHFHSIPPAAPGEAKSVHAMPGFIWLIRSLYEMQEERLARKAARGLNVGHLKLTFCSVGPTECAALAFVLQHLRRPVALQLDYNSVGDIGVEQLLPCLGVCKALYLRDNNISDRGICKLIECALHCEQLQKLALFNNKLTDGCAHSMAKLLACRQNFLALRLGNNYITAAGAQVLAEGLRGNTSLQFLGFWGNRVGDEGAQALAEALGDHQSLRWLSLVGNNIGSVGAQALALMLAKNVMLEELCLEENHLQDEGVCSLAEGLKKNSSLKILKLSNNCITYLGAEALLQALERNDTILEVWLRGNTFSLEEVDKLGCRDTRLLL
Sequence of Kappa-type opioid receptor (P41145 whole entry): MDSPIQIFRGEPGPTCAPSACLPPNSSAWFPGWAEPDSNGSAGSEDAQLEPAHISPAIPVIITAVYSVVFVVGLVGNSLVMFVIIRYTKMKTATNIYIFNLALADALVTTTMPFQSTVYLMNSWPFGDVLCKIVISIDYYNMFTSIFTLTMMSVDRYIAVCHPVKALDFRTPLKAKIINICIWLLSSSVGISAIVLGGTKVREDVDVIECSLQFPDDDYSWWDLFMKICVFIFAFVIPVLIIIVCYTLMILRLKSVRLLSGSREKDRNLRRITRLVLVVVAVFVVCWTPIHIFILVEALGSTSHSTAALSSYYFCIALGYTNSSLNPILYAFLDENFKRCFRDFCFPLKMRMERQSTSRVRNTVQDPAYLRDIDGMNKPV
Sequence of Cytochrome P450 3A4 (P08684 whole entry): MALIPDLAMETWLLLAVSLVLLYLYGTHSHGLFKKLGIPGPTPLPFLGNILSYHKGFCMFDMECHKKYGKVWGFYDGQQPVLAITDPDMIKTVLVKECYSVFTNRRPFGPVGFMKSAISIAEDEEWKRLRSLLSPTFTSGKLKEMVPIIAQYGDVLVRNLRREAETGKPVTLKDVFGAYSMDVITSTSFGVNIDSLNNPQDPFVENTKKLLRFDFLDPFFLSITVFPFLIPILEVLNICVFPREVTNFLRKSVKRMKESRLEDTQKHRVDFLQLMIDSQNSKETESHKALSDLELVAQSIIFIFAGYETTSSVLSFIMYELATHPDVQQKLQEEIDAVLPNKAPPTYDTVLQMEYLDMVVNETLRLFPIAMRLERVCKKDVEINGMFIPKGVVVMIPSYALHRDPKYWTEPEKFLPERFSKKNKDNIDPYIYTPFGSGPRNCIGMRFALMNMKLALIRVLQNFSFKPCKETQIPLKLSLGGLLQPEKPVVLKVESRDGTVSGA
Sequence of Cytochrome P450 2C9 (P11712 whole entry): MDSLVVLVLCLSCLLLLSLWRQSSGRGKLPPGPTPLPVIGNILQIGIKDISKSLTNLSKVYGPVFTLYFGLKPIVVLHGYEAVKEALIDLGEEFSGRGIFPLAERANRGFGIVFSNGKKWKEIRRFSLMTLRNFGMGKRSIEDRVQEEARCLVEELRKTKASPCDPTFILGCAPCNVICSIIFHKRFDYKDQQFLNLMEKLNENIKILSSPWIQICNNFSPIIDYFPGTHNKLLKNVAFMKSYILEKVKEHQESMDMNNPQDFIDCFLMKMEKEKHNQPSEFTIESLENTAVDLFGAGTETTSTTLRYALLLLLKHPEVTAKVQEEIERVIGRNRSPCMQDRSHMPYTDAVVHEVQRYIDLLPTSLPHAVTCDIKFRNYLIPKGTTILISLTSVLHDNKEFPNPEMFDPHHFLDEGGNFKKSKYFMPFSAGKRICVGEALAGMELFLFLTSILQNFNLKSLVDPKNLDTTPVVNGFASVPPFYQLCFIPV
Sequence of Disintegrin and metalloproteinase domain-containing protein 17 (P78536 whole entry, the tested form may be a part): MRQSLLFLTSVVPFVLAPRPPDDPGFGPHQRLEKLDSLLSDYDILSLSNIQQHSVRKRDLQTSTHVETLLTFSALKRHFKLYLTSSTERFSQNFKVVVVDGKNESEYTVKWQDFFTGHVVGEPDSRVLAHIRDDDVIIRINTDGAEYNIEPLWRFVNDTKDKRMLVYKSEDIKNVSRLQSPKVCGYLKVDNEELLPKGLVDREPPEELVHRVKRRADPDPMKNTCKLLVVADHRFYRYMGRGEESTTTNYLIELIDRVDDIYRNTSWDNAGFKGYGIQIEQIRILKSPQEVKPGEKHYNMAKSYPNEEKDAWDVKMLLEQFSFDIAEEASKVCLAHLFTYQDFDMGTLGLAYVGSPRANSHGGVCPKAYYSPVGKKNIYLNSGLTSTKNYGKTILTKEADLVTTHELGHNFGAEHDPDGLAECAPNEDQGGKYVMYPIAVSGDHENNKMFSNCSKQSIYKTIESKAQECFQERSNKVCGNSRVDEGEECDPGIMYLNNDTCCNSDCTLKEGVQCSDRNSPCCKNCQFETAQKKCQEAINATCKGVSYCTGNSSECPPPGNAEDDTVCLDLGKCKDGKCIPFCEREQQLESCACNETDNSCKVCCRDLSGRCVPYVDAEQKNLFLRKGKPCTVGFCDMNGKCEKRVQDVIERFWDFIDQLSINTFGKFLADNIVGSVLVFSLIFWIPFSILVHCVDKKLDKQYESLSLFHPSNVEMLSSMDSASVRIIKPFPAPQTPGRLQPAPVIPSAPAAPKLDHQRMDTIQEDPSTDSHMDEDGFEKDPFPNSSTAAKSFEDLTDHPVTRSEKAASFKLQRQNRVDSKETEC

SMILES: CCOC(=O)c1ccc(NC(=O)C(=O)NCC2CCCO2)cc1 (centres undefined)
- AC50 (Cytochrome P450 2C9): 25.1 µM (inconclusive)
- AC50 (Cytochrome P450 2C19): 31.6 µM (inconclusive)
- AC50 (Cytochrome P450 2D6): inconclusive

SMILES: c1ccc2cc(Sc3ncnc4c3oc3ccccc34)ccc2c1
- AC50 (Cytochrome P450 3A4): inconclusive

SMILES: Cc1cccc(CN2CCN(C(=O)CCl)CC2)c1
- IC50 (HEK293 [1]): > 20 µM (inactive)
- IC50 (HEK293 [2]): > 20 µM (inactive)
- EC50 [3]: 31.2 µM (active)
- EC50 [4]: > 20 µM (inactive)
- EC50 (Protein RecA): 20.2 µM (active)
- IC50 (HEK293 [5]): 13.9 µM (active)
- EC50 (BJ [6]): 9.64 µM (inconclusive)
- EC50 (BJ [7]): > 150 µM (inconclusive)
- AC50 [8]: 21.4 µM (active)
- IC50 (HEK293 [9]): 16.7 µM (inactive)
- EC50 (BJ [10]): > 150 µM (not active)
- EC50 (HEK293 [11]): > 20 µM (inactive)

SMILES: CC(C)CCOC(=O)C[N+](C)(C)CCOC1CC2CCC1(C)C2(C)C (centres undefined)
- EC50 [12]: 1.3 µM (active)
- EC50 [13]: > 60 µM (not active)
- IC50 (Protein Wnt-3a): 5.09 µM (active)
- IC50 [14]: 0.643 µM (active)
- IC50 [15]: < 0.25 µM (active)
- EC50 [16]: > 160 µM (inactive)
- EC50 [17]: 286 nM (active)

SMILES: Clc1ccc(CSc2nnc(-c3ccccn3)n2Cc2ccccc2Cl)cc1Cl
- EC50 [18]: 11.8 µM (inactive)

SMILES: O=C(NC(CSCc1ccccc1)C(=O)N/N=C/c1ccc(O)cc1O)c1ccc([N+](=O)[O-])cc1 (centres undefined)
- EC50 [19]: 5.27 µM (active)
- AC50 [20]: 3 µM (active)
- IC50 [14]: 2.19 µM (active)
- EC50 [21]: 10.9 µM (active)
- IC50 [15]: 3.07 µM (active)
- IC50 [22]: > 69.5 µM (inactive)
- EC50 (cells [23]): 9.52 µM (active)
- EC50 [24]: 6.53 µM (inconclusive)
- IC50 [25]: > 69.5 µM (inactive)
- EC50 (cells [26]): > 350 µM (not active)

SMILES: Cc1coc2c1C(=O)C(=O)c1c-2ccc2c(C)cccc12 [TANSHINONE I]
- IC50 [14]: 3.91 µM (active)
- EC50 (Streptokinase A): > 150 µM (not active)
- IC50 [15]: 2.8 µM (active)
- EC50 [27]: 4.65 µM (active)
- EC50 (Streptococcus): 7.63 µM (active)
